The conditions of data set [1]: cited from earlier work.
Data set [2] has as its target butyrylcholinesterase (hBChE) (Homo sapiens, UniProt P06276). The following applies: higher activity than CES; cited from earlier work.
Data set [3] concerns the target T1, CES2 (Homo sapiens, UniProt O00748).
T1 sequence (O00748 27-559): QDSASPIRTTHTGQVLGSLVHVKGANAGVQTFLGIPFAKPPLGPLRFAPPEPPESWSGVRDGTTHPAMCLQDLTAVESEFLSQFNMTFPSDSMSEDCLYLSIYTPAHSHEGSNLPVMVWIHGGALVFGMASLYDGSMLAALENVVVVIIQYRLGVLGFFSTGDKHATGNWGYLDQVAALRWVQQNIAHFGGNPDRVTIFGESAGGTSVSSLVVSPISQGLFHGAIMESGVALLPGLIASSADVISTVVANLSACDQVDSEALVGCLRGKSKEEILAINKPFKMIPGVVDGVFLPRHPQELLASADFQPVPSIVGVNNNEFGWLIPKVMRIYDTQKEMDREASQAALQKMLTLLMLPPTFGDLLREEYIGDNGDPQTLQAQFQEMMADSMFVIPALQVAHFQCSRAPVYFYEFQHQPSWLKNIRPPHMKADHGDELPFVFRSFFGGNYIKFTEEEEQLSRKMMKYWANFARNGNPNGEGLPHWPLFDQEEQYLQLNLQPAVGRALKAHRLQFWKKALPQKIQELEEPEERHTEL
As to conditions: higher affinity than CES1; cited from earlier work.

In data set [4] the test system is Panc 02.03 cells. The experiment in a line: Panc 02.03 pancreatic cancer xenograft, average tumor volumes in nude/nude mice. The class given is in vivo. The following applies: single agent, 30 mg/kg i.p. BID 2x/week; day 22. As for the experimental part:
Immunocompromised nude/nude mice are inoculated in the right hind flank with cells harboring a KRas G12D mutation. […] The first group is administered vehicle only. […] Tumor volumes are measured using a caliper every two-three days and tumor volumes are calculated by the formula: […].

Structures can show the parent of a compound that is named as a salt. Some results are limits rather than exact numbers.

We go through 3 compounds from US20250249003A1, “COMBINATIONS OF KRAS G12D INHIBITORS WITH IRINOTECAN AND RELATED METHODS OF TREATMENT” (MIRATI THERAPEUTICS, INC., priority 2021, published 2025).

Chain of butyrylcholinesterase (hBChE) (P06276 29-602): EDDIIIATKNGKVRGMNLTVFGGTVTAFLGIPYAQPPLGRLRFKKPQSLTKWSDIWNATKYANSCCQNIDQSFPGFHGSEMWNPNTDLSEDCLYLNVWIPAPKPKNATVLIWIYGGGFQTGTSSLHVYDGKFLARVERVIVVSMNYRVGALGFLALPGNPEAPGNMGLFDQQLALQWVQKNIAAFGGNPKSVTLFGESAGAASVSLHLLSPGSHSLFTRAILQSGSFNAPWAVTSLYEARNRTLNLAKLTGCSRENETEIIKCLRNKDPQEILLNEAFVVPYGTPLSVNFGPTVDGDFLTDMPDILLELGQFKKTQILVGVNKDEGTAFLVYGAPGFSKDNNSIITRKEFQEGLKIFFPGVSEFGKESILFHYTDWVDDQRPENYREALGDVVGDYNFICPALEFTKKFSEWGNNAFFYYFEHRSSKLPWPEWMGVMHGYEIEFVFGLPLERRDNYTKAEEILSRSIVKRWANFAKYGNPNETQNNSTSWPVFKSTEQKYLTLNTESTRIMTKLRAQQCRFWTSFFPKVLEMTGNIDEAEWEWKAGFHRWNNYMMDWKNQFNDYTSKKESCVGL

`CCc1c2c(nc3ccc(OC(=O)N4CCC(N5CCCCC5)CC4)cc13)-c1cc3c(c(=O)n1C2)COC(=O)[C@]3(O)CC` [Irinotecan, (S)-4,11-diethyl-3,4,12,14-tetrahydro-4-hydroxy-3,14-dioxo-1H-pyrano[3′,4′:6,7]indolizino[1,2-β]quinolin-9-yl ester[1,4′-bipiperidine]-1′-carboxylic acid trihydrate monohydrochloride]: in data set [1] (in vivo), the “fraction of pro-drug hydrolyzed into active metabolite SN-38” value is on record as 2-5%. For the same compound, in data set [2], the “activity for irinotecan, butyrylcholinesterase relative to CES” value is 6 fold. Also, the “affinity for irinotecan, CES2 relative to CES1” value in data set [3] is given as 12.5 fold.
On to `C#Cc1c(F)ccc2cc(O)cc(-c3ncc4c(N5C[C@H]6CC[C@@H](C5)N6)nc(OC[C@@]56CCCN5C[C@H](F)C6)nc4c3F)c12` [MRTX1133, 4-(4-((1R,5S)-3,8-diazabicyclo[3.2.1]octan-3-yl)-8-fluoro-2-(((2R,7aS)-2-fluorohexahydro-1Hpyrrolizin-7a-yl)methoxy)pyrido[4,3-d]pyrimidin-7-yl)-5-ethynyl-6-fluoronaphthalen-2-ol], for which the tumor growth in data set [4] was found to be 72%.
For `CCc1c2c(nc3ccc(O)cc13)-c1cc3c(c(=O)n1C2)COC(=O)[C@]3(O)CC` [SN-38, ethyl-10-hydroxy-camptothecin], the “time to peak plasma concentration” value in data set [1] (after infusion) is listed as ≤ 2 h. Also, the distribution half-life entry in data set [1] (in vivo) is listed as “approximately 8 min”.
